Reference: publication PMC12772150, “PIP2 corrects an endothelial Piezo1 channelopathy” (Proceedings of the National Academy of Sciences of the …, 2025)

Assays:
Piezo1 [1] = molecular target: T1, Piezo1 (Mus musculus, UniProt E2JF22); assay: single-channel patch clamp (cell-attached concentration-response with Yoda1; outside-out patches with PIP2 in pipette); format: cell-based
T1 construct: native channel in freshly isolated brain capillary endothelial cells

Piezo1 [2] = molecular target: T2, Piezo1 (Mus musculus, UniProt E2JF22, R2482H); assay: cell-attached single-channel patch clamp, […] PIP2, no Yoda1 ([…] inhibition); format: cell-based
T2 construct: mutant channel in capillary endothelial cells of Piezo1EC-Mutant mice
T2 sequence (E2JF22 whole entry R2482H): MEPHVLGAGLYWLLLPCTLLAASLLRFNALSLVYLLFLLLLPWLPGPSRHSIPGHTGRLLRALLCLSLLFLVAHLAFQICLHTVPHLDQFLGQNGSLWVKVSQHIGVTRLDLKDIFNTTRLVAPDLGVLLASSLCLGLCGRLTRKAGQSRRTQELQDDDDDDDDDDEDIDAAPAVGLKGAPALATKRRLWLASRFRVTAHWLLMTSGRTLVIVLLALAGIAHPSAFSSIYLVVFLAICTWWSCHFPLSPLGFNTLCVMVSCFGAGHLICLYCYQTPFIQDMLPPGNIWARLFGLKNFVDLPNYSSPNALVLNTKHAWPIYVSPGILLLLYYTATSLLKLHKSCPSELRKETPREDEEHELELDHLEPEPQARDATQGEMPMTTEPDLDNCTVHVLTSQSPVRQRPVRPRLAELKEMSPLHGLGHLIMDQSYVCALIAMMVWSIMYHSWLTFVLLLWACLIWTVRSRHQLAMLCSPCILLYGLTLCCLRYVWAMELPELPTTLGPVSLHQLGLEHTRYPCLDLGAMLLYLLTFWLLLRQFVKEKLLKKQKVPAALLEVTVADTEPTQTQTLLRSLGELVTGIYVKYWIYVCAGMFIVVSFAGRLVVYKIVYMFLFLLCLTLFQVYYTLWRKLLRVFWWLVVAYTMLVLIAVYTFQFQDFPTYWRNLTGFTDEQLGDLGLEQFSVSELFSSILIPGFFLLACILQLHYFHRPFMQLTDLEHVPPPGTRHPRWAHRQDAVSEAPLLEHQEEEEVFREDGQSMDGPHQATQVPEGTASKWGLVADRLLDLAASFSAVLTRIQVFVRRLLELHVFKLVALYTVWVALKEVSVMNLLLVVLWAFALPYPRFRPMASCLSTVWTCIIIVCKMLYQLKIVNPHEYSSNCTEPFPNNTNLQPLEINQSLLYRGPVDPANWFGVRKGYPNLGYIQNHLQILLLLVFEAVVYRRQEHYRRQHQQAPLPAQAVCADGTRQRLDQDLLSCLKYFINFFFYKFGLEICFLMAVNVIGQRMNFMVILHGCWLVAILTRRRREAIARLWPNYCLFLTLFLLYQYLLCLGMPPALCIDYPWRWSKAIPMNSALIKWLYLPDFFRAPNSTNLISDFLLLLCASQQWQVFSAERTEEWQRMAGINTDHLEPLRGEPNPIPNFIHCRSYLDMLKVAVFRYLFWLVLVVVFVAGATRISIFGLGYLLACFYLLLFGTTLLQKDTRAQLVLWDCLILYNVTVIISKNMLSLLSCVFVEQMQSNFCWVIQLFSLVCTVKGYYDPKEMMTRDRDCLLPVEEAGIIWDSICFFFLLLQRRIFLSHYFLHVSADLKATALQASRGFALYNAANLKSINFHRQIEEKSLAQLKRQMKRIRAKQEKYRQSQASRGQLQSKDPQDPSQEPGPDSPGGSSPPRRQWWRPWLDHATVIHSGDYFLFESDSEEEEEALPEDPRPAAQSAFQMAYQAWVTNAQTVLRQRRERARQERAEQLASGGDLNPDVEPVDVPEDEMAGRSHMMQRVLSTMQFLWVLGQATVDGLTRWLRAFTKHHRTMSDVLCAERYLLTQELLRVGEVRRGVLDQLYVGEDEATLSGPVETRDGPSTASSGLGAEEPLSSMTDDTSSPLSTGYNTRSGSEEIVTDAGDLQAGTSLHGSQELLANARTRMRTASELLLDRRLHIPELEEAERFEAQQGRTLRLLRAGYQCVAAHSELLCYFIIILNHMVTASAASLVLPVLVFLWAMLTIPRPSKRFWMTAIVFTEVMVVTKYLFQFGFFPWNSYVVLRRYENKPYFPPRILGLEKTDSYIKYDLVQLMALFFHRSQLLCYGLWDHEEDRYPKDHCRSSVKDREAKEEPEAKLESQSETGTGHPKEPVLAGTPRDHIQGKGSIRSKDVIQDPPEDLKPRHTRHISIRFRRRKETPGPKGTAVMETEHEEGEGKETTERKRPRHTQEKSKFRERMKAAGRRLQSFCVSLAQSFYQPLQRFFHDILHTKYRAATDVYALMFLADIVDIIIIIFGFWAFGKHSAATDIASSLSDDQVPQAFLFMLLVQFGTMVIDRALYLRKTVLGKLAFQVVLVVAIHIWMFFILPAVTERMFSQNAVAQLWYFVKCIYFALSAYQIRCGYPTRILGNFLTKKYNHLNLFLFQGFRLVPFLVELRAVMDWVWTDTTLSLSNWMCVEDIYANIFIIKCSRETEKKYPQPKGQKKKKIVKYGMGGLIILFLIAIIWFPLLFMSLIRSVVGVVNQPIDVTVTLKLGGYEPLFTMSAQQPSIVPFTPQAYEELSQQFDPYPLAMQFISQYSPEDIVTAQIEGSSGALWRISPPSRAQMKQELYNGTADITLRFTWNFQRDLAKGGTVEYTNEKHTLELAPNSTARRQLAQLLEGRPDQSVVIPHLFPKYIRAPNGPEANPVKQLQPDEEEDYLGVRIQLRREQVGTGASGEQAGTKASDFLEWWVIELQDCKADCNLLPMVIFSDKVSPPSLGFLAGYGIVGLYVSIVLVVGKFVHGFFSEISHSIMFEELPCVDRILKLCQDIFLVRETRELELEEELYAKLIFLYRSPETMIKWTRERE

T1 sequence (E2JF22 whole entry): as the sequence (E2JF22 whole entry R2482H) above, with H2482R counted along it

SMILES: CCCCCCCCCCCCCCCC(=O)OC[C@H](COP(=O)(O)O[C@@H]1[C@H](O)[C@H](O)[C@@H](OP(=O)(O)O)[C@H](OP(=O)(O)O)[C@H]1O)OC(=O)CCCCCCCCCCCCCCC [diC16-PIP2]
- IC50 (Piezo1 [1]): ~300 nM
- inhibition at 10 µM (Piezo1 [2]): 50%
